The subject of series [1] is NCI-56 human tumor cell lines. Conditions: cited from earlier work.
Another series deals with BxPC-3 cells. As to the kind of experiment: Cytotoxicity of Gem-ARA, MTT assay, BxPC-3 cells. The note with it: up to 72 h, mean ± SD (n>3). It counts as cell-based, human. The procedure:
(§1) To understand the effect of the omega-3 polyunsaturated fatty acid nature of the DHA (i.e., the docosahexaedecanoyl group) in the Gem-DHA on its cytotoxicity against tumor cells, gemcitabine was also conjugated to arachidonic acid, an omega-6 polyunsaturated fatty acid, to synthesize 4-(N)-arachidonyl gemcitabine (Gem-ARA) (FIG. 4). Human pancreatic cancer cells (MIA PaCa-2 or BxPC-3) were seeded (3,000/well) in 96-well plates. After overnight incubation, cells were treated with various concentrations of gemcitabine HCl or Gem-ARA at 37° C., 5% CO2 for up to 72 h. Gemcitabine HCl was dissolved in phosphate buffered saline (PBS, pH 7.4, 10 mM), and Gem-ARA was dissolved in DMSO. The maximum amount of DMSO added per well was 0.9 μL, which was found non-toxic. The number of viable cells after the incubation was determined using an MTT assay as described above. The 50% inhibition concentration (IC50) values were estimated using GraphPad prism 5 parameters curve fittings.
A general note: Formazan colour is commonly taken as a measure of viable cells.

The next series has as its system MIA PaCa-2 cells. As to the kind of experiment: Cytotoxicity of Gem-ARA, MTT assay, MIA PaCa-2 cells. In kind it is cell-based, human. Conditions: up to 72 h, mean ± SD (n>3). The procedure:
as §1

Series [2] can be described thus: Aqueous solubility by the indirect method (IPM/water partitioning, Beall et al.). Conditions: mean ± SD (n=3). It counts as physicochemical. The procedure: The aqueous solubility of Gem-DHA was determined following an indirect method according to Beall et al. with minimal modifications (Beall HD et al. International Journal of Pharmaceutics. 1993, 93, 37-47). Briefly, an excess amount of Gem-DHA was added to 100 μl of IPM in a crimp-sealed amber glass vials under nitrogen and was stirred vigorously at room temperature for 24 h, protected from light. After the stirring was stopped, the mixture was left to stand for an additional 24 h for equilibration. The content of the vial was centrifuged (14,000 rpm, 10 min) and the supernatant was transferred into a different tube. Aliquots of the saturated IPM solution were used to measure the Gem-DHA concentration before partitioning (A1) using HPLC (after proper dilution with methanol). Then, water was added to the IPM saturated solution in a volume ratio of 10:1. The two phases were mixed by vortexing for 5 min, left to stand for 15 min, then centrifuged (14,000 rpm, 15 min) to collect the IPM layer. Gem-DHA concentration in the IPM layer (A2) was again measured using HPLC after partitioning. The following equation was used to calculate the partition coefficient (KIPM/water) (Beall HD et al. International Journal of Pharmaceutics. 1993, 93, 37-47):
[formula] where Vwater is the volume of the water phase and VIPM is the volume of IPM. The value of (Vwater/VIPM) was 10.
The aqueous solubility (Sw) of Gem-DHA was determined using the following equation (Id.):
[formula] where SIPM is the solubility of Gem-DHA in IPM.
(§2) In order to validate the method of Beall et al. (Id.), the aqueous solubility of 4-(N)-stearoyl gemcitabine, another lipophilic gemcitabine conjugate (Sloat BR et al. Int J Pharm. 2011, 409(1-2), 278-288), which is stable in water, was measured directly (i.e., direct method) or using the indirect method reported by Beall et al. (Beall HD et al. International Journal of Pharmaceutics. 1993, 93, 37-47).

The nature of series [3]: Aqueous solubility measured directly (direct method). In kind it is physicochemical. Conditions: mean ± SD (n=3). The procedure: as §2
For the next series, the system named is pre-established tumors. Conditions: solubilized in a Tween 80 solution; cited from earlier work.
The test system of series [4] is MIA PaCa-2, Panc-1 cells, CCRF-CEM, B16-F10, and TC-1. The note with it: various tumor cell lines in culture; cited from earlier work.
The next series relates to Panc-02 tumors. Description: Antitumor activity against s.c. Panc-02 tumors in C57BL/6 mice. In kind it is in vivo. Conditions: i.p., ~0.1 mmole/kg, twice a week, up to 6 doses. As to the method: Therefore, the in vivo anti-tumor activity of Gem-DHA was also evaluated and compared to that of DHA alone in male C57BL/6 mice (6-8 weeks, Charles River) with subcutaneously (s.c.)
implanted Panc-02 tumors. Briefly, 1×10^6 cells were s.c. injected in the right flank of mice. Sixteen days later, mice were randomized into groups (n=12) and i.p. injected with Gem-DHA (˜55 mg/kg, […]) or DHA (˜33 mg/kg, ˜0.1 mmole/kg). Mice in the control group were i.p. injected with sterile 5% mannitol (w/v). Gem-DHA and DHA was dissolved in a Tween 80/ethanol/water solution with 5% (w/v) of mannitol. The doses were based on the average weight of mice in the same group on the first day of injection. The treatment was repeated twice a week for up to 6 doses. Tumor growth was monitored using a digital caliper, and tumor volume was calculated based on the longest diameter (L1) and the shortest diameter (L2) of each tumor using the equation of V=½×(L1×L2×L2).

For a further series, the system named is Panc-02 tumor cells. Description: Cytotoxicity after 4 h co-incubation, MTT test. The note with it: Panc-02 cells, at concentrations of more than 80 μM. It counts as cell-based, mouse. The procedure: The mechanisms underlying the cytotoxicity of the Gem-DHA may be different from that of gemcitabine. For example, in cell culture studies, Panc-02 cells were seeded into 96-well plates (1,500 cells per well) and incubated at 37° C., 5% CO2 for 24 h. They were then co-incubated with various concentrations of Gem-DHA, gemcitabine HCl alone, or DHA alone for 4 h, and cell viability was determined using an MTT test.

The subject of series [5] is advanced pancreatic cancer. The note with it: in combination with gemcitabine; cited from earlier work.

`CC/C=C\C/C=C\C/C=C\C/C=C\C/C=C\C/C=C/CCC(=O)O[C@@H](C(=O)O[C@H]1C[C@@]2(O)[C@@H](OC(=O)c3ccccc3)C3[C@](C)(C(=O)[C@H](OC(C)=O)C(=C1C)C2(C)C)[C@@H](O)C[C@H]1OC[C@@]31OC(C)=O)[C@@H](NC(=O)c1ccccc1)c1ccccc1` (some centres unmarked) [DHA conjugated to paclitaxel]: the “Effect of DHA conjugation on cytotoxicity” value in series [1] is “lowers the cytotoxicity of the paclitaxel”.
In the case of `CCCCC/C=C\C/C=C\C/C=C\C/C=C\CCCC(=O)Nc1ccn([C@@H]2O[C@H](CO)[C@@H](O)C2(F)F)c(=O)n1` [Gem-ARA, 4-(N)-Arachidonoyl Gemcitabine], the concentration for half-maximal inhibition (IC50) in the series with BxPC-3 cells is 1.93 ± 3.8 nM; in the series on MIA PaCa-2 cells it was 64.3 ± 42.7 nM.
With `CCCCCCCCCCCCCCCCCC(=O)Nc1ccn([C@@H]2OC(CO)C(O)C2(F)F)c(=O)n1` (some centres unmarked) [Stearoyl gemcitabine, 4-(N)-stearoyl gemcitabine], in series [2] (IPM/water, room temperature), the “KIPM/water (partition coefficient)” value was determined as 35.33 ± 2.7. Further, in series [2] (estimated from solubility in IPM and KIPM/water), the “Water Solubility, Indirect method” value was 1.39 ± 0.1 µg/mL. For the same compound, the “Water Solubility, Direct method” value in series [3] came out at 1.38 ± 1.6 µg/mL. The “Inhibition of tumor growth compared with gemcitabine” value in the series with pre-established tumors is “not more active than gemcitabine alone”. For the same compound, the “Cytotoxicity compared with gemcitabine” value in [4] was “less cytotoxic than gemcitabine alone”.
Take `CC/C=C\C/C=C\C/C=C\C/C=C\C/C=C\C/C=C\CCC(=O)O` [DHA, Cis-4,7,10,13,16,19-docosahexaenoic acid, reference compound]: in the series on Panc-02 tumors, the “Inhibition of Panc-02 tumor growth” value was “did not significantly inhibit the tumor growth”. The “Cytotoxicity after 4 h of co-incubation” value with Panc-02 tumor cells is “did not show any significant cytotoxicity”.
As to `C#Cc1cccc(Nc2ncnc3cc(OCCOC)c(OCCOC)cc23)c1` [erlotinib], the “Prolongation of median survival” value in series [5] is 10 days.

The IC50 is the concentration needed to halve the response being measured. A high value points to lower potency.

The values above are taken from patent publication US11883423B2, “Nucleobase analogue derivatives and their applications” (BOARD OF REGENTS, THE UNIVERSITY OF TEXAS SYSTEM, priority 2014, dated 2024).
